Assay results reported in US9102671B2, “Compounds and compositions as TRK inhibitors” (Novartis AG, priority 2011, dated 2015).

Legend:
[1] = test system: parental (untransformed) Ba/F3 cells; experiment: Ba/F3 cell proliferation, BAF3/WT (parental, IL3); assay type: cell-based, murine; conditions: Mus musculus, inhibition of proliferation of parental cells with IL3, 48 hours, Bright-Glo luminescence
Procedure: (§1) Test compounds were dissolved in DMSO (10 mM) and transferred into 1.4 mL flat bottom or V-shaped Matrix tubes carrying a unique 2D matrix chip by individual compound hubs. The numbers of these chips were distinctively linked to the individual compound identification numbers. The stock solutions were stored at −20° C. if not used immediately. For the test procedure the vials were defrosted and identified by a scanner whereby a working sheet is generated that guides the subsequent working steps.
(§2) Compound dilutions were made in 384 well plates. This format enabled the assay of maximally 28 individual test compounds at 11 concentrations (single points) including 2 reference compounds. The dilution protocol included the production of pre-dilution plates, master plates and assay plates: • Compound plates: 30 μL of individual compound (10 mM) DMSO solution including reference compound were transferred into columns 1 and 13 of a 384 well plate. 20 μL of DMSO were added to the rest of the wells and the compounds were serially diluted (1:3) by transferring 10 μL from a well in column 1 or 13 to the next well in column 2 or 14 respectively and successively with the help of a Minitrack robot. • Assay plates: Identical assay plates were then prepared by adding 50 nL each of compound dilutions of the compound plates into 384-well “assay plates”. In the following the compounds were mixed with 50 μL of assays components (cells or enzyme) and tested for their inhibitory activity.
Compounds were tested for their ability to inhibit the proliferation of wt Ba/F3 cells and Ba/F3 cells transformed with constitutively expressed luciferase reporter and BCR-ABL or Tel-FMS or other Tel fusion kinases (EGFR, JAK2, ALK, BMX, FGFR3, FGFR4, FGR2, FLT1, FLT3, IGF1R, INSR, KDR, KIT, LCK, LYN, MEK, MET, PDGFRα, PDGFRβ, RET, RON, ROS, SRC, SYK, TIE and TYRO) or BRafV600E. Parental Ba/F3 cells were maintained in media containing recombinant mouse IL3 and the kinase transformed Ba/F3 cells were maintained in media without IL-3. 7.5 nl of compounds were spotted to each well of 1536-well assay plates by Liquid handling System Echo 555 (Labcyte). 700 cells were then plated into each well of the assay plates in 7 uL culture media per well and compounds were tested at 0.17 nM to 10 uM in 3-fold serial dilutions. The cells were then incubated for 48 hours at 37° C. 3 uL of Bright-Glo® (Promega) was added to each well and the plates were read using ViewLux (PerkinElmer).
The cell line used is the luciferase expressing Ba/F3 murine hematopoietic progenitor cell line transformed with human Tel-TrkA, Tel-TrkB or Tel-TrkC cDNAs (Ba/F3 EN A/B/C). These cells maintained in RPMI/10% fetal bovine serum (RPMI/FCS) supplemented with penicillin 50 mg/mL, streptomycin 50 mg/mL and L-glutamine 200 mM. Untransformed Ba/F3 cells were similarly maintained with the addition 5 ng/ml of murine recombinant IL3. 50 μl of a Ba/F3 or Ba/F3 EN A/B/C cell suspension were plated in Greiner 384 well microplates (white)) at a density of 2000 cells per well. 50 nl of serially diluted test compound (10-0.0001 mM in DMSO solution) is added to each well. The cells were incubated for 48 hours at 37° C., 5% CO2. 25 μl of Bright Glo® (Promega) luciferase substrate is added to each well. The emited luminiscence is quantified using ViewLux (PerkinElmer). IC50 values were calculated by linear regression analysis of the percentage inhibition of each compound at 11 concentrations. […]

[2] = molecular target: T1, Ba/F3 cells co-expressing full length rTrkA and mNGF (Rattus norvegicus, UniProt P35739); experiment: Ba/F3 cell proliferation, BaF3/TRKA-NGF; assay type: cell-based; conditions: inhibition of proliferation, 48 hours, Bright-Glo luminescence
T1 construct: co-expressing full length rTrkA and mNGF; expressed in transfected cells; host or cells: Ba/F3 murine hematopoietic progenitor cells

[3] = molecular target: T2, Ba/F3 cells transformed with human Tel-TrkA (Homo sapiens, UniProt P04629); experiment: Ba/F3 cell proliferation, Ba/F3 Tel-TrkA; assay type: cell-based; conditions: inhibition of proliferation, 48 hours, Bright-Glo luminescence; read-out: Ba/F3Tel-TrkA
T2 construct: expressed in transfected cells; host or cells: luciferase expressing Ba/F3 murine hematopoietic progenitor cell line; the other entry of the earlier key: ETV6 (P41212, Transcription factor ETV6)
Procedure: as §1, §2
The cell line used is the luciferase expressing Ba/F3 murine hematopoietic progenitor cell line transformed with human Tel-TrkA, Tel-TrkB or Tel-TrkC cDNAs (Ba/F3 EN A/B/C). These cells maintained in RPMI/10% fetal bovine serum (RPMI/FCS) supplemented with penicillin 50 mg/mL, streptomycin 50 mg/mL and L-glutamine 200 mM. Untransformed Ba/F3 cells were similarly maintained with the addition 5 ng/ml of murine recombinant IL3. 50 μl of a Ba/F3 or Ba/F3 EN A/B/C cell suspension were plated in Greiner 384 well microplates (white)) at a density of 2000 cells per well. 50 nl of serially diluted test compound (10-0.0001 mM in DMSO solution) is added to each well. The cells were incubated for 48 hours at 37° C., 5% CO2. 25 μl of Bright Glo® (Promega) luciferase substrate is added to each well. The emited luminiscence is quantified using ViewLux (PerkinElmer). IC50 values were calculated by linear regression analysis of the percentage inhibition of each compound at 11 concentrations.
In certain examples compounds of Formula (I) have IC50 values from 0.1 nM 1 μM. In other examples, compounds of Formula (I) have IC50 values from 0.0001 μM to 0.8 μM. In other examples, compounds of Formula (I) have IC50 values from 0.0001 μM to 0.6 μM. In other examples, compounds of Formula (I) have IC50 values from 0.0001 μM to 0.4 μM. In other examples, compounds of Formula (I) have IC50 values from 0.0001 μM to 0.2 μM. In other examples, compounds of Formula (I) have IC50 values from 0.0001 μM to 0.1 μM. In other examples, compounds of Formula (I) have IC50 values from 0.0001 μM to 0.08 μM. In other examples, compounds of Formula (I) have IC50 values from 0.0001 μM to 0.06 μM. In other examples, compounds of Formula (I) have IC50 values from 0.0001 μM to 0.04 μM. In other examples, compounds of Formula (I) have IC50 values from 0.0001 μM to 0.02 μM. In other examples, compounds of Formula (I) have IC50 values from 0.0001 μM to 0.01 μM. In other examples, compounds of Formula (I) have IC50 values from 0.01 μM to 1 μM.

T1 sequence (P35739 33-799): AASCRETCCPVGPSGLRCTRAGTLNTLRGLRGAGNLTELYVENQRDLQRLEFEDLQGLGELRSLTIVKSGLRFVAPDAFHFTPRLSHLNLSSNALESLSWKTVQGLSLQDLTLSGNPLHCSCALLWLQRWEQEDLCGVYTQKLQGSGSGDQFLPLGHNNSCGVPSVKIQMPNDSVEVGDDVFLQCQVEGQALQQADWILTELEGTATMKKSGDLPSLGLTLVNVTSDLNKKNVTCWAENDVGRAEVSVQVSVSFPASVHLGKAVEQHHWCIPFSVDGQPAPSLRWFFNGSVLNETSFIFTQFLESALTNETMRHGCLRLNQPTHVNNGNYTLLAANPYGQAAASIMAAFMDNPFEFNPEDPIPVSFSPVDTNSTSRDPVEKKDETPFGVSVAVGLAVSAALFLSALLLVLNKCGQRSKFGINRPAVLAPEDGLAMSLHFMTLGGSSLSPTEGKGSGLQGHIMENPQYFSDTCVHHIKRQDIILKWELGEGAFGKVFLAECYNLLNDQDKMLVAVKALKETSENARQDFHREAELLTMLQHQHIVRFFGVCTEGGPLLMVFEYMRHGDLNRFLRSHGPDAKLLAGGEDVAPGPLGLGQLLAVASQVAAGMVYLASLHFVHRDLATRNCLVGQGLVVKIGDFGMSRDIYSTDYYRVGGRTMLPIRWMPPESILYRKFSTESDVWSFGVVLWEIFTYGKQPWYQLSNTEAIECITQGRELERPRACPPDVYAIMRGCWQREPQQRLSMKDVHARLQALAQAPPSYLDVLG
T1 sequence (P01139 122-241 partner): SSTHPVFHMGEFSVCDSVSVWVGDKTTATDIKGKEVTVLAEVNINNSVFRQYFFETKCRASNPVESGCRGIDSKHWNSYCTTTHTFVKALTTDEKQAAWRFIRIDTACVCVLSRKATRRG
T2 sequence (P04629 510-796 limits assumed): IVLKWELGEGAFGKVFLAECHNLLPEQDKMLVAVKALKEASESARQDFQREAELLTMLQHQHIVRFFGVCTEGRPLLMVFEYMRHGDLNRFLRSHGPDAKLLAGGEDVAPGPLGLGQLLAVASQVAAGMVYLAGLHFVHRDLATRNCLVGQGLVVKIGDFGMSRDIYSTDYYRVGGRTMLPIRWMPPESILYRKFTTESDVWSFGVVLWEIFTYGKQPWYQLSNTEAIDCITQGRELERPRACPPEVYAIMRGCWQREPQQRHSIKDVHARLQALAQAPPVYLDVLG

IC50 [2]	IC50 [3]	SMILES	IC50 [1]
1 nM	–	CCOC(=O)c1cnn2ccc(N3C[C@@H](F)C[C@@H]3c3cccc(F)c3)cc12 [Example X-1, ethyl 5-((2R,4S)-4-fluoro-2-(3-fluorophenyl)pyrrolidin-1-yl)pyrazolo[1,5-a]pyridine-3-carboxylate]	4100 nM
7 nM	6 nM	NC(=O)c1cnn2ccc(N3C[C@@H](F)C[C@@H]3c3cccc(F)c3)cc12 [Example X-5, 5-((2R,4S)-4-fluoro-2-(3-fluorophenyl)pyrrolidin-1-yl)pyrazolo[1,5-a]pyridine-3-carboxamide]	> 10000 nM
2 nM	1 nM	CCOC(=O)c1cnn2ccc(N3C[C@@H](F)C[C@@H]3c3cc(F)cc(C#N)c3)cc12 [Example X-7, ethyl 5-((2R,4S)-2-(3-cyano-5-fluorophenyl)-4-fluoropyrrolidin-1-yl)pyrazolo[1,5-a]pyridine-3-carboxylate]	4490 nM
19 nM	17 nM	CCOC(=O)c1cnn2ccc(N3CC(F)(F)C[C@@H]3c3cc(F)cc(C#N)c3)cc12 [Example X-8, (R)-ethyl 5-(2-(3-cyano-5-fluorophenyl)-4,4-difluoropyrrolidin-1-yl)pyrazolo[1,5-a]pyridine-3-carboxylate]	> 10000 nM
24 nM	21 nM	N#Cc1cc(F)cc([C@H]2CC(F)(F)CN2c2ccn3ncc(C(N)=O)c3c2)c1 [Example X-11, (R)-5-(2-(3-cyano-5-fluorophenyl)-4,4-difluoropyrrolidin-1-yl)pyrazolo[1,5-a]pyridine-3-carboxamide]	> 10000 nM
8 nM	6 nM	CCNC(=O)c1cnn2ccc(N3C[C@@H](F)C[C@@H]3c3cccc(F)c3)cc12 [Example X-14, N-ethyl-5-[(2R,4S)-4-fluoro-2-(3-fluorophenyl)pyrrolidin-1-yl]pyrazolo[1,5-a]pyridine-3-carboxamide]	> 10000 nM

The next lines start with the molecule.

SMILES	IC50 [2]	IC50 [3]	IC50 [1]
CCOC(=O)c1cnn2ccc(N3CC(F)(F)C[C@@H]3c3cccc(F)c3)cc12 [Example X-2, (R)-ethyl 5-(4,4-difluoro-2-(3-fluorophenyl)pyrrolidin-1-yl)pyrazolo[1,5-a]pyridine-3-carboxylate]	3 nM	3 nM	> 10000 nM
O=C(O)c1cnn2ccc(N3C[C@@H](F)C[C@@H]3c3cccc(F)c3)cc12 [Example X-3, 5-((2R,4S)-4-fluoro-2-(3-fluorophenyl)pyrrolidin-1-yl)pyrazolo[1,5-a]pyridine-3-carboxylic acid]	110 nM	147 nM	> 10000 nM
O=C(O)c1cnn2ccc(N3CC(F)(F)C[C@@H]3c3cccc(F)c3)cc12 [Example X-4, (R)-5-(4,4-difluoro-2-(3-fluorophenyl)pyrrolidin-1-yl)pyrazolo[1,5-a]pyridine-3-carboxylic acid]	666 nM	1680 nM	> 10000 nM
NC(=O)c1cnn2ccc(N3CC(F)(F)C[C@@H]3c3cccc(F)c3)cc12 [Example X-6, (R)-5-(4,4-difluoro-2-(3-fluorophenyl)pyrrolidin-1-yl)pyrazolo[1,5-a]pyridine-3-carboxamide]	16 nM	24 nM	> 10000 nM
NC(=O)c1cc(F)cc([C@H]2CC(F)(F)CN2c2ccn3ncc(C(N)=O)c3c2)c1 [Example X-9, (R)-5-(2-(3-carbamoyl-5-fluorophenyl)-4,4-difluoropyrrolidin-1-yl)pyrazolo[1,5-a]pyridine-3-carboxamide]	48 nM	37 nM	> 10000 nM
NC(=O)c1cnn2ccc(N3CCCCC3c3cccc(F)c3)cc12 (centres unmarked) [Example X-12, 5-[2-(3-fluorophenyl)piperidin-1-yl]pyrazolo[1,5-a]pyridine-3-carboxamide]	97 nM	225 nM	> 10000 nM
NC(=O)c1cnn2ccc(N3CCCC3c3ccccc3C(F)(F)F)cc12 (centres unmarked) [Example X-13, 5-{2-[2-(trifluoromethyl)phenyl]pyrrolidin-1-yl}pyrazolo[1,5-a]pyridine-3-carboxamide]	341 nM	712 nM	> 10000 nM
